# Source: patent US20150224190A1, “Combination of a phosphoinositide 3-kinase inhibitor and an inhibitor of the IL-8/CXCR interaction” (priority 2012, published 2015)
# Test system: IL-8
# Experiment: IL-8 levels in dissected primary triple-negative breast tumors or plasma of mice (ELISA)
# Assay type: in vivo, human
# Conditions: day 3 of treatment with 30 mg/kg BEZ235 vs vehicle
# Experimental: FIG. 5. BEZ235 treatment activates JAK2/STAT5 and IL-8 secretion in human primary triple-negative breast tumors Bar graphs showing IL-8 levels measured by ELISA in the dissected tumors from or in the plasma of mice at day 3 of treatment with 30 mg/kg BEZ235 or vehicle (VHC). Results represent means±SEM (n=3-4, *P<0.05). For assessing pJAK2 levels, an ELISA assay ([…]/1008, Invitrogen) was applied because of cross-reactivity of all pJAK2 antibodies tested. Interleukin-8 levels in RIPA lysates, cell culture supernatants and mouse tail vein blood plasma were measured by ELISA, as well (Biolegend). Cytokine arrays on cell culture supernatants and mouse tumor lysates were performed according the manufacture's protocol (R & D systems, Human and Mouse cytokine array panel A). […] Tumors were measured every 3 to 4 days with vernier calipers, and tumor volumes were calculated by the formula 0.5×(larger diameter)×(smaller diameter)^2. End point tumor sizes were analyzed for synergism using the formula AB/C<A/C×B/C, where C=tumor volume VHC, A=tumor volume compound 1, B=tumor volume compound 2, AB=tumor volume combination (Clarke, 1997).
compound,measurement,value
"Cn1c(=O)n(-c2ccc(C(C)(C)C#N)cc2)c2c3cc(-c4cnc5ccccc5c4)ccc3ncc21 [COMPOUND A, 2-methyl-2-[4-(3-methyl-2-oxo-8-quinolin-3-yl-2,3-dihydro-imidazo[4,5-c]quinolin-1-yl)-phenyl]-propionitrile]",IL-8 secretion (IL-8 levels in tumors or plasma),activates
